How the values were obtained:
rat [1] = conditions: Multigenerational reproductive toxicity study, sprague dawley, Oral, Feed, dose end: 2 generation
rabbit [2] = conditions: Prenatal developmental toxicity study, new zealand white, Oral, Gavage/Intubation, dose end: 19 GD
dog [3] = conditions: Chronic toxicity; beagle; Oral; Feed; dose end: 52 week; group: systemic; systemic / hematology / erythrocyte (rbc) count differential / erythrocyte (rbc) + systemic / hematology / platelet / platelet + systemic / …
rat [4] = conditions: Prenatal developmental toxicity study, sprague dawley, Oral, Gavage/Intubation, dose end: 15 GD
rabbit [5] = conditions: Prenatal developmental toxicity study, new zealand white, Oral, Gavage/Intubation, dose end: 18 GD
rat [6] = conditions: Combined chronic toxicity/carcinogenicity, sprague dawley, Oral, Feed, dose end: 24 month, group: systemic
rat [7] = conditions: Multigenerational reproductive toxicity study, sprague dawley, Oral, Feed, dose end: 1 generation
rat [8] = conditions: Prenatal developmental toxicity study; other; Oral; Gavage/Intubation; dose end: 19 GD; group: developmental; developmental / developmental malformation / ureter / hydroureter
mouse [9] = conditions: Combined chronic toxicity/carcinogenicity, cd1, Oral, Feed, dose end: 104 week, group: systemic
mouse [10] = conditions: Multigenerational reproductive toxicity study; cd1; Oral; Feed; dose end: 1 generation; group: parental; systemic / in life observation / food consumption / food consumption
rat [11] = conditions: Combined chronic toxicity/carcinogenicity; sprague dawley; Oral; Feed; dose end: 118 week; group: systemic; systemic / in life observation / clinical signs / feces, discoloration
rat [12] = conditions: Prenatal developmental toxicity study, Osborne-Mendel, Oral, Water, dose end: 20 GD
dog [13] = conditions: Chronic toxicity, beagle, Oral, Feed, dose end: 12 month, group: systemic
dog [14] = conditions: Subchronic oral toxicity in nonrodent, beagle, Feed, dose end: 90 day, group: systemic
rat [15] = conditions: Subchronic oral toxicity in rodents, wistar, Feed, dose end: 91 day, group: systemic, systemic / clinical chemistry / alanine aminotransferase (alt/sgpt) / alanine aminotransferase (alt/sgpt) + systemic / clinical chemistry / …
rat [16] = conditions: Combined chronic toxicity/carcinogenicity; wistar; Oral; Feed; dose end: 2 year; group: systemic; systemic / clinical chemistry / alanine aminotransferase (alt/sgpt) / alanine aminotransferase (alt/sgpt) + systemic / clinical chemistry / …
mouse [17] = conditions: Carcinogenicity, b6c3f1, Oral, Feed, dose end: 2 year, group: systemic
dog [18] = conditions: Subchronic oral toxicity in nonrodent, beagle, [Not Specified], dose end: 4 week, group: systemic, systemic / clinical chemistry / alanine aminotransferase (alt/sgpt) / alanine aminotransferase (alt/sgpt) + systemic / clinical chemistry / …
dog [19] = conditions: Chronic toxicity; beagle; Oral; Feed; dose end: 52 week; group: systemic; systemic / clinical chemistry / cholesterol / cholesterol + systemic / clinical chemistry / creatinine / creatinine + systemic / clinical …
rat [20] = conditions: Subchronic oral toxicity in rodents, wistar, Feed, dose end: 90 day, group: systemic
rat [21] = conditions: Prenatal developmental toxicity study, wistar, Oral, Gavage/Intubation, dose end: 15 GD
[22] = group: offspring, systemic / in life observation / body weight / offspring (pup) weight
[23] = group: parental, systemic / in life observation / body weight / body weight + systemic / in life observation / body weight / body weight gain + systemic / in…
[24] = group: developmental, developmental / developmental malformation / bone / fused
[25] = group: maternal, systemic / in life observation / body weight / body weight gain
[26] = group: developmental, developmental / developmental malformation / bone / incomplete ossification
[27] = group: maternal, systemic / in life observation / clinical signs / alopecia + systemic / in life observation / clinical signs / blood around eyes and nose + …
[28] = group: developmental, developmental / developmental malformation / bone / delayed ossification + developmental / developmental malformation / bone / fused + …
[29] = group: maternal, reproductive / offspring survival early / live fetuses / live fetuses + systemic / organ weight / uterus / nos
[30] = systemic / clinical chemistry / calcium / calcium + systemic / clinical chemistry / protein / protein + systemic / in life observation / …
[31] = systemic / organ weight / liver / relative to body weight
[32] = group: offspring, developmental / developmental landmark / vaginal opening / vaginal opening + systemic / in life observation / clinical signs / nocturnal …
[33] = group: offspring, developmental / offspring survival late / [other] / [other] + developmental / developmental landmark / vaginal opening / vaginal opening + …
[34] = group: parental, systemic / in life observation / body weight / body weight
[35] = group: reproductive, reproductive / reproductive performance / pregnancy / pregnancy
[36] = systemic / organ weight / thyroid gland / absolute + systemic / organ weight / thyroid gland / relative to body weight
[37] = group: developmental, developmental / developmental malformation / bone / bipartite ossification + developmental / developmental malformation / bone / incomplete …
[38] = group: maternal, systemic / in life observation / water consumption / water consumption + reproductive / reproductive performance / reproductive performance …
[39] = systemic / clinical chemistry / cholesterol / cholesterol + systemic / clinical chemistry / creatinine / creatinine + systemic / clinical …
[40] = systemic / pathology microscopic / pituitary gland / cyst
[41] = systemic / clinical chemistry / [other] / [other]
[42] = systemic / clinical chemistry / [other] / [other] + systemic / clinical chemistry / alanine aminotransferase (alt/sgpt) / alanine …
[43] = systemic / hematology / blood clotting / blood clotting - clotting time + systemic / organ weight / kidney / absolute + systemic / organ …
[44] = group: developmental, developmental / developmental malformation / bone / incomplete ossification + developmental / developmental malformation / bone / …
[45] = group: maternal, systemic / in life observation / body weight / body weight gain + systemic / in life observation / food consumption / food consumption + …

## C#CCOS(=O)OC1CCCCC1Oc1ccc(C(C)(C)C)cc1 (stereo unspecified) [Propargite]
Rat [1]; [22]
  LEL: 40 mg/kg/day
  LOAEL: 40 mg/kg/day
  NEL: 20 mg/kg/day
  NOAEL: 20 mg/kg/day
Rat [1]; [23]
  LEL: 20 mg/kg/day
  LOAEL: 20 mg/kg/day
  NEL: 4 mg/kg/day
  NOAEL: 4 mg/kg/day
Rabbit [2]; [24]
  LEL: 10 mg/kg/day
  LOAEL: 10 mg/kg/day
  NEL: 8 mg/kg/day
  NOAEL: 8 mg/kg/day
Rabbit [2]; [25]
  LEL: 8 mg/kg/day
  LOAEL: 8 mg/kg/day
  NEL: 6 mg/kg/day
  NOAEL: 6 mg/kg/day
Dog [3]
  LEL: 38 mg/kg/day
  LOAEL: 38 mg/kg/day
  NEL: 5 mg/kg/day
  NOAEL: 5 mg/kg/day
Rat [4]; group: developmental, developmental / developmental malformation / bone / absent + developmental / developmental malformation / bone / small
  LOAEL: 25 mg/kg/day
Rat [4]; [26]
  LEL: 6 mg/kg/day
  NEL: < 6 mg/kg/day
Rat [4]; group: developmental, developmental / developmental malformation / bone / incomplete ossification + developmental / developmental malformation / bone / absent + …
  NOAEL: 6 mg/kg/day
Rat [4]; [27]
  LEL: 105 mg/kg/day
  LOAEL: > 450 mg/kg/day
  NEL: 25 mg/kg/day
  NOAEL: ≥ 450 mg/kg/day
Rabbit [5]; group: developmental, developmental / developmental malformation / bone / delayed ossification
  LEL: 6 mg/kg/day
Rabbit [5]; [28]
  LOAEL: > 18 mg/kg/day
  NEL: 2 mg/kg/day
  NOAEL: ≥ 18 mg/kg/day
Rabbit [5]; [29]
  LEL: 2 mg/kg/day
  NEL: < 2 mg/kg/day
Rabbit [5]; group: maternal, systemic / in life observation / body weight / body weight gain + reproductive / offspring survival early / live fetuses / live fetuses
  LOAEL: 6 mg/kg/day
Rabbit [5]; group: maternal, systemic / in life observation / body weight / body weight gain + reproductive / reproductive performance / implantations / implantations + …
  NOAEL: 2 mg/kg/day
Rat [6]; [30]
  LOAEL: 19.2 mg/kg/day
  NOAEL: 3.83 mg/kg/day
Rat [6]; [31]
  LEL: 2.95 mg/kg/day
  NEL: < 2.95 mg/kg/day

## COc1cc(S(=O)(=O)[O-])c(C)cc1N=Nc1c(O)ccc2cc(S(=O)(=O)[O-])ccc12.[Na+].[Na+]
Rat [7]; [32]
  LEL: 1250 mg/kg/day
  NEL: < 1250 mg/kg/day
Rat [7]; [33]
  LOAEL: > 5000 mg/kg/day
  NOAEL: ≥ 5000 mg/kg/day
Rat [7]; [34]
  LEL: 1250 mg/kg/day
  LOAEL: > 5000 mg/kg/day
  NEL: < 1250 mg/kg/day
  NOAEL: ≥ 5000 mg/kg/day
Rat [7]; [35]
  LEL: 1250 mg/kg/day
  LOAEL: > 5000 mg/kg/day
  NEL: < 1250 mg/kg/day
  NOAEL: ≥ 5000 mg/kg/day
Rat [8]
  LEL: 200 mg/kg/day
  LOAEL: > 200 mg/kg/day
  NEL: 100 mg/kg/day
  NOAEL: ≥ 200 mg/kg/day
Mouse [9]; systemic / in life observation / food consumption / food consumption
  LEL: 1880 mg/kg/day
Mouse [9]; systemic / in life observation / food consumption / food consumption + systemic / pathology microscopic / lymph node / lymphoma nos
  NEL: 507 mg/kg/day
Mouse [9]; [36]
  LOAEL: > 7320 mg/kg/day
  NOAEL: ≥ 7320 mg/kg/day
Mouse [10]
  LEL: 2930 mg/kg/day
  LOAEL: > 2930 mg/kg/day
  NEL: 1420 mg/kg/day
  NOAEL: ≥ 2930 mg/kg/day
Rat [11]
  LEL: 701 mg/kg/day
  LOAEL: > 2830 mg/kg/day
  NEL: 180 mg/kg/day
  NOAEL: ≥ 2830 mg/kg/day
Rat [12]; [37]
  LEL: 260 mg/kg/day
  LOAEL: > 260 mg/kg/day
  NEL: < 260 mg/kg/day
  NOAEL: ≥ 260 mg/kg/day
Rat [12]; [38]
  LEL: 260 mg/kg/day
  LOAEL: > 260 mg/kg/day
  NEL: < 260 mg/kg/day
  NOAEL: ≥ 260 mg/kg/day

## Cc1cc(Cl)ccc1OCC(=O)O [MCPA]
Dog [13]; [39]
  LOAEL: 1.02 mg/kg/day
  NOAEL: 0.21 mg/kg/day
Dog [13]; [40]
  LEL: 0.2 mg/kg/day
  NEL: < 0.2 mg/kg/day
Dog [14]; [41]
  LEL: 3 mg/kg/day
  LOAEL: 3 mg/kg/day
Dog [14]; [42]
  NEL: 1 mg/kg/day
  NOAEL: 1 mg/kg/day
Rat [15]
  LEL: 177 mg/kg/day
  LOAEL: 177 mg/kg/day
  NEL: 34 mg/kg/day
  NOAEL: 34 mg/kg/day
Rat [16]
  LEL: 5.7 mg/kg/day
  LOAEL: 5.7 mg/kg/day
  NEL: 1.4 mg/kg/day
  NOAEL: 1.4 mg/kg/day
Mouse [17]; systemic / in life observation / body weight / body weight
  LEL: 15.7 mg/kg/day
Mouse [17]; systemic / in life observation / body weight / body weight + systemic / pathology microscopic / kidney / casts protein + systemic / …
  NEL: 3.2 mg/kg/day
Mouse [17]; systemic / pathology microscopic / kidney / hyperplasia
  LOAEL: 19.5 mg/kg/day
Mouse [17]; systemic / pathology microscopic / kidney / hyperplasia + systemic / in life observation / body weight / body weight + systemic / organ …
  NOAEL: 3.9 mg/kg/day
Dog [18]
  LEL: 8 mg/kg/day
  LOAEL: 8 mg/kg/day
  NEL: < 8 mg/kg/day
  NOAEL: < 8 mg/kg/day
Dog [19]
  LEL: 1.02 mg/kg/day
  LOAEL: 1.02 mg/kg/day
  NEL: 0.21 mg/kg/day
  NOAEL: 0.21 mg/kg/day
Rat [20]; [43]
  LOAEL: 32.6 mg/kg/day
  NEL: 3.6 mg/kg/day
  NOAEL: 10.9 mg/kg/day
Rat [20]; systemic / organ weight / kidney / absolute
  LEL: 10.9 mg/kg/day
Rat [21]; [44]
  LEL: 120 mg/kg/day
  LOAEL: 120 mg/kg/day
  NEL: 60 mg/kg/day
  NOAEL: 60 mg/kg/day
Rat [21]; [45]
  LEL: 120 mg/kg/day
  LOAEL: 120 mg/kg/day
  NEL: 60 mg/kg/day
  NOAEL: 60 mg/kg/day
